Measurements: patent US12281363B2, “Methods for detecting antiviral-drug resistant virus” (Secretary of State for Health and Social Care, priority 2018, dated 2025)
Where two headings read alike, the source gives them in different places.

Tested on: HSV-1
Test: Plaque reduction assay, HSV-1 clinical isolates on Vero cells
Format: cell-based
Details: Human alphaherpesvirus 1, Vero
From the text: Viral isolates were used to infect a sub-confluent monolayer of Vero cells at a concentration of 75 or 50 plaque forming units (PFU) per well for HSV-1 and HSV-2, respectively. […] CMC medium typically used to create a semisolid interface and prevents indiscrimate viral spreading. Other materials (e.g. agar) may also be used to create this interface.
Cells were fixed with 10% formalin and stained with crystal violet before enumeration of the plaques (microscopic observation or use of fluorescent antibodies for detection is also suitable). The data obtained from these experiments were then expressed as percent inhibition of viral infectivity relative to the no drug control.
Definitions of phenotypic drug susceptibility classification as sensitive or resistant were as follows: ACV, <3 μM or >40 μM; PCV, <10 μM or >40 μM; CDV, <24 μM or >30 μM; FOS, <250 μM or >400 μM; and ACV, <6.5 μM or >40 μM; PCV, <38 μM or >40 μM; FOS, <250 μM or >400 μM for HSV-1 and HSV-2, respectively. Any IC50 values falling in between these sensitive and resistant cut-offs were reported as intermediate resistance.
The phenotype (i.e. reactivity to a drug) of the virus was characterised by the plaque reduction assay as described above.

Nc1ccn(C[C@@H](CO)OCP(=O)(O)O)c(=O)n1 [Cidofovir, cidofovir]
IC50 (isolate HPG032, HSV-1 TK 183* (437_438insA), read-out: Drug susceptibility Cidofovir (CDV)): < 24 µM | IC50 (isolate HPG033, HSV-1 TK I358L (1072A>C), also TK T287M, read-out: Drug susceptibility (IC50 value)): 15 µM | IC50 (isolate HPG033, HSV-1 TK I358L (1072A>C), also TK T287M, read-out: Drug susceptibility Cidofovir (CDV)): < 24 µM | IC50 (isolate HPG033, HSV-1 pol N1046T (3137A>C), also TK T287M, pol A1169T, read-out: Drug susceptibility (IC50 value)): 15 µM | IC50 (isolate HPG033, HSV-1 pol N1046T (3137A>C), also TK T287M, pol A1169T, read-out: Drug susceptibility Cidofovir (CDV)): < 24 µM | IC50 (isolate HPG035, HSV-1 pol S239L (716C>T), also pol S724N, read-out: Drug susceptibility (IC50 value)): 39.6 µM | IC50 (isolate HPG035, HSV-1 pol S239L (716C>T), also pol S724N, read-out: Drug susceptibility Cidofovir (CDV)): > 30 µM | IC50 (isolate HPG037, HSV-1 TK L69M (205>A), also TK Y239H, read-out: Drug susceptibility Cidofovir (CDV)): < 24 µM | IC50 (isolate HPG037, HSV-1 TK R256W (766C>T), read-out: Drug susceptibility (IC50 value)): 4.39 µM | IC50 (isolate HPG037, HSV-1 TK R256W (766C>T), read-out: Drug susceptibility Cidofovir (CDV)): < 24 µM | IC50 (isolate HPG037, HSV-1 TK Y239H (715T>C), read-out: Drug susceptibility (IC50 value)): 4.39 µM | IC50 (isolate HPG037, HSV-1 TK Y239H (715T>C), read-out: Drug susceptibility Cidofovir (CDV)): < 24 µM | IC50 (isolate HPG039, HSV-1 TK 85* or H58fs (169delC, 170delC, 171delC, or 172delC), read-out: Drug susceptibility (IC50 value)): 2.97 µM | IC50 (isolate HPG039, HSV-1 TK 85* or H58fs (169delC, 170delC, 171delC, or 172delC), read-out: Drug susceptibility Cidofovir (CDV)): < 24 µM | IC50 (isolate HPG040, HSV-1 pol S911N (2732G>A), also TK deletion (C) nt 896-900, pol A1169T, read-out: Drug susceptibility (IC50 value)): 11.3 µM | IC50 (isolate HPG040, HSV-1 pol S911N (2732G>A), also TK deletion (C) nt 896-900, pol A1169T, read-out: Drug susceptibility Cidofovir (CDV)): < 24 µM | IC50 (isolate HPG041, HSV-1 pol S911N (2732G>A), also pol A1169T, read-out: Drug susceptibility (IC50 value)): 18 µM | IC50 (isolate HPG041, HSV-1 pol S911N (2732G>A), also pol A1169T, read-out: Drug susceptibility Cidofovir (CDV)): < 24 µM | IC50 (isolate HPG042, HSV-1 pol A972V (2915C>T), also TK deletion (C) nt 881-885, pol A1169T, read-out: Drug susceptibility (IC50 value)): < 1.56 µM | IC50 (isolate HPG042, HSV-1 pol A972V (2915C>T), also TK deletion (C) nt 881-885, pol A1169T, read-out: Drug susceptibility Cidofovir (CDV)): < 24 µM | IC50 (isolate HPG042, HSV-1 pol G22R (64G>A), also TK deletion (C) nt 881-885, pol A1169T, read-out: Drug susceptibility (IC50 value)): < 1.56 µM | IC50 (isolate HPG042, HSV-1 pol G22R (64G>A), also TK deletion (C) nt 881-885, pol A1169T, read-out: Drug susceptibility Cidofovir (CDV)): < 24 µM | IC50 (isolate HPG043, HSV-1 TK 183* (437_438insA), read-out: Drug susceptibility (IC50 value)): 1.65 µM | IC50 (isolate HPG043, HSV-1 TK 183* (437_438insA), read-out: Drug susceptibility Cidofovir (CDV)): < 24 µM | IC50 (isolate HPG045, HSV-1 TK L49R (146T>G), read-out: Drug susceptibility (IC50 value)): < 1.56 µM | IC50 (isolate HPG045, HSV-1 TK L49R (146T>G), read-out: Drug susceptibility Cidofovir (CDV)): < 24 µM | IC50 (isolate HPG045, HSV-1 pol L419I (1255C>A), also TK L49R, pol A1169T, read-out: Drug susceptibility (IC50 value)): < 1.56 µM | IC50 (isolate HPG045, HSV-1 pol L419I (1255C>A), also TK L49R, pol A1169T, read-out: Drug susceptibility Cidofovir (CDV)): < 24 µM | IC50 (isolate HPG046, HSV-1 TK I166N (497T>A), read-out: Drug susceptibility (IC50 value)): 2.1 µM | IC50 (isolate HPG046, HSV-1 TK I166N (497T>A), read-out: Drug susceptibility Cidofovir (CDV)): < 24 µM | IC50 (isolate HPG047, HSV-1 pol E680 (2039A>C), also TK deletion (C) nt 548-553, pol A1169T, read-out: Drug susceptibility Cidofovir (CDV)): < 24 µM | IC50 (isolate HPG051, HSV-1 pol D83A (248A>C), also TK R176stop, read-out: Drug susceptibility (IC50 value)): 4.94 µM | IC50 (isolate HPG051, HSV-1 pol D83A (248A>C), also TK R176stop, read-out: Drug susceptibility Cidofovir (CDV)): < 24 µM | IC50 (isolate HPG052, HSV-1 TK Q34* (100C>T), read-out: Drug susceptibility (IC50 value)): 4.77 µM | IC50 (isolate HPG052, HSV-1 TK Q34* (100C>T), read-out: Drug susceptibility Cidofovir (CDV)): < 24 µM | IC50 (isolate HPG053, HSV-1 pol L802R + A834S (2405T>G, 2500G>T), also TK R176W, read-out: Drug susceptibility Cidofovir (CDV)): < 24 µM | IC50 (isolate HPG053, HSV-1 pol S911N (2732G>A), also TK R176W, pol A1169T, read-out: Drug susceptibility (IC50 value)): 7.72 µM | IC50 (isolate HPG053, HSV-1 pol S911N (2732G>A), also TK R176W, pol A1169T, read-out: Drug susceptibility Cidofovir (CDV)): < 24 µM | IC50 (isolate HPG054, HSV-1 pol E992K (2974G>A), also TK insert (G) nt 430-436, pol A1169T, read-out: Drug susceptibility (IC50 value)): 3.85 µM | IC50 (isolate HPG054, HSV-1 pol E992K (2974G>A), also TK insert (G) nt 430-436, pol A1169T, read-out: Drug susceptibility Cidofovir (CDV)): < 24 µM | IC50 (isolate HPG055, HSV-1 TK V204G (611T>G), also pol A1169AT, read-out: Drug susceptibility (IC50 value)): < 1.56 µM | IC50 (isolate HPG055, HSV-1 TK V204G (611T>G), also pol A1169AT, read-out: Drug susceptibility Cidofovir (CDV)): < 24 µM | IC50 (read-out: Drug susceptibility (IC50 value), isolate HPG005, HSV-1 TK A192T (574G>A)): 2.21 µM | IC50 (read-out: Drug susceptibility (IC50 value), isolate HPG006, HSV-1 pol G121S (361G>A), also a TK resistance mutation (footnote a)): 6.14 µM | IC50 (read-out: Drug susceptibility (IC50 value), isolate HPG012, HSV-1 pol G985E (2954G>A), also TK A93V): 2.84 µM | IC50 (read-out: Drug susceptibility (IC50 value), isolate HPG016, HSV-1 pol A1169T (3505G>A)): 16.5 µM | IC50 (read-out: Drug susceptibility (IC50 value), isolate HPG037, HSV-1 TK L69M (205>A), also TK Y239H): 4.39 µM | IC50 (read-out: Drug susceptibility (IC50 value), isolate HPG042, HSV-1 TK frameshift (881delC to 885delC)): < 1.56 µM | IC50 (read-out: Drug susceptibility (IC50 value), isolate HPG047, HSV-1 pol E680 (2039A>C), also TK deletion (C) nt 548-553, pol A1169T): 2.88 µM | IC50 (read-out: Drug susceptibility Cidofovir (CDV), isolate HPG005, HSV-1 TK A192T (574G>A)): < 24 µM | IC50 (read-out: Drug susceptibility Cidofovir (CDV), isolate HPG006, HSV-1 pol G121S (361G>A), also a TK resistance mutation (footnote a)): < 24 µM | IC50 (read-out: Drug susceptibility Cidofovir (CDV), isolate HPG012, HSV-1 pol G985E (2954G>A), also TK A93V): < 24 µM | IC50 (read-out: Drug susceptibility Cidofovir (CDV), isolate HPG016, HSV-1 pol A1169T (3505G>A)): < 24 µM | IC50 (read-out: Drug susceptibility Cidofovir (CDV), isolate HPG042, HSV-1 TK frameshift (881delC to 885delC)): < 24 µM
